PubChem BioAssay AID489027 (Sanford-Burnham Center for Chemical Genomics, 2010)
Active and inactive are the calls of the source. The rule behind the calls is not given here.

Target: UPR counterscreen luciferase reporter, luminescence
Experiment: luciferase reporter activation, UPR counterscreen line – cell-based, luminescence, counter-screen for adaptive UPR activator project, dose response (AID 489027)

| Compound | EC50 |
| --- | --- |
| O=C(/C=C/c1ccccc1)NC(NC(=S)Nc1cccc(Cl)c1)C(Cl)(Cl)Cl (stereo not drawn) | > 80 µM (inactive) |
| O=C(NC(=S)Nc1cc(-c2nc3ccccc3[nH]2)ccc1Cl)c1ccc2c(c1)OCO2 | 8.21 µM |
| O=C(Nc1nc2ccc(Cl)cc2s1)c1ccc(N2CCCCC2)c([N+](=O)[O-])c1 | inactive |
| Cc1ccc2nc(N(CCCN(C)C)C(=O)c3ccc(S(=O)(=O)N4CCc5ccccc5C4)cc3)sc2c1 | 10.9 µM |
| CCOC(=O)c1c2ccc(OCC(=O)N/N=C/c3ccc(C)cc3)cc2n2ccccc12 | 17.3 µM |
| CCC1(c2ccc(F)cc2)NC(=O)N(CC(=O)Nc2ccc(-c3nc4ccc(C)cc4s3)cc2)C1=O (stereo not drawn) | > 80 µM (inactive) |
| Oc1ccc(/C=N/Nc2cc(N3CCOCC3)nc(N3CCOCC3)n2)cc1O | 3.8 µM |
| Cc1cccc(Nc2nc3c(S(=O)(=O)c4ccccc4)nnn3c3ccccc23)c1C | 12.3 µM |
| CCOC(=O)c1c(NC(=O)c2cc(-c3ccc(O)cc3)on2)sc(C(C)=O)c1C | > 80 µM (inactive) |
| CCCCCCCCCCOC(=O)Cn1c(COc2ccc(Cl)cc2)[n+](C)c2ccccc21 | > 80 µM (inactive) |
| Nc1cccc(-c2nc3cc(S(=O)(=O)c4ccc5oc(-c6cccc(N)c6)nc5c4)ccc3o2)c1 | > 80 µM (inactive) |
| OCCCn1c(C2CCCN2c2nc(-c3ccc(Cl)cc3)cs2)nc2cc(Cl)c(N3CCCCC3)cc21 (stereo not drawn) | inactive |
| CCCn1c(Nc2nc3ccccc3n2C)nc2ccccc21 | inactive |
| Cc1cc(NC(=O)/C(C#N)=C/c2ccc(-c3ccc(SC(F)F)cc3)o2)n(-c2ccccc2)n1 | > 80 µM (inactive) |
| Cc1ccc(-n2nc3c(N4CCC(C(=O)NCCc5ccccc5C)CC4)nnc(C)c3c2C)cc1 | > 80 µM (inactive) |
| N#C/C(=C/c1ccc(N2CCCC2)c([N+](=O)[O-])c1)c1nc2ccccc2[nH]1 | > 80 µM (inactive) |
| CC(=O)Oc1ccc(-c2ccc(C(=O)OCC(=O)N(C)CC(=O)Nc3ccccc3Cl)cc2)cc1 | 3.02 µM |
| Oc1ccc(/C=N/Nc2ncnc3c2ncn3Cc2ccccc2)cc1O | 7.62 µM |
| COc1ccccc1N=Cc1c(O)c2ccccc2oc1=O | 9.23 µM |
| O=C(NC(=S)Nc1ccc(NC(=O)c2cccs2)cc1)c1cc2ccccc2o1 | inactive |
| Cc1ccc2nc(NC(=O)c3ccc(-c4nc5ccccc5s4)s3)sc2c1 | 11 µM |
| COc1cc([N+](=O)[O-])cc(/C=N/NC(=O)c2ccc(NC(=O)c3ccc(C)cc3)cc2)c1O | inactive |
| NS(=O)(=O)c1ccc(N/N=C/c2cn(-c3ccccc3)nc2-c2cccs2)c([N+](=O)[O-])c1 | > 80 µM (inactive) |
| COc1cc(/C=N/Nc2nc(Nc3ccccc3)nc(-n3nc(C)cc3C)n2)cc(OC)c1OC | > 80 µM (inactive) |

| Compound | EC50 |
| --- | --- |
| CCOC(=O)c1c(NC(=O)/C=C/C(=O)O)sc(C)c1-c1ccc(C(C)(C)C)cc1 | > 80 µM (inactive) |
| FC(F)(F)c1nnc2c(Sc3ccccc3)nc3ccc(Cl)cc3n12 | 4.29 µM |
| CCN(CC)S(=O)(=O)c1ccc2c(c1)C(=NO)c1cc(S(=O)(=O)N(CC)CC)ccc1-2 | > 80 µM (inactive) |
| C/C(=N/NC(=O)c1ccc(Cl)s1)c1ccc(NC(=O)COc2ccc(Cl)cc2)cc1 | inactive |
| Cc1cc(SCC(=O)c2ccc(O)c(O)c2)n2nc(C)c(-c3ccccc3)c2n1 | > 80 µM (inactive) |
| Cn1nnnc1Sc1ncnc2scc(-c3ccc(Cl)cc3)c12 | 17.1 µM |
| COc1ccc(-c2nc3scc(-c4ccc(OC)c(OC)c4)c3c(=O)o2)cc1 | > 80 µM (inactive) |
| Oc1ccc(/C=N/Nc2nc(N3CCCC3)nc(N3CCCC3)n2)cc1O | 3.95 µM |
| O=C(Oc1ccccc1/C=C\C(=O)c1cc2ccccc2o1)c1cccc(F)c1 | 8.33 µM |
| Cc1ccc2c(c1)c(N=NC(N)=S)c(O)n2Cc1ccccc1 | > 80 µM (inactive) |
| CC1CCN(Cc2c(C(=O)N/N=C/c3ccc(C(F)(F)F)cc3)nnn2-c2nonc2N)CC1 | > 80 µM (inactive) |
| COc1ccccc1-c1sc2cc3c(cc2c1-c1ccc(OCCN2CCCCC2)cc1)OCO3 | 17.7 µM |
| CCOC(=O)c1nn(-c2ccc(OCC)cc2)c2nc(-c3ccco3)c(C#N)c(=O)n12 | inactive |
| O=c1oc(CCCO)cc2ccc(/C=C/c3cccc([N+](=O)[O-])c3)cc12 | > 80 µM (inactive) |
| CC(C)CN=C(NS(=O)(=O)c1ccccc1)C(Cl)(Cl)Cl | 16.2 µM |
| CCOc1ccc(-c2nnc(SCC(=O)Nc3ccc4c(c3)c3ccccc3n4CC)n2N)cc1 | 14.6 µM |
| O=C(Nc1ccc([N+](=O)[O-])cc1)c1nc[nH]c1C(=O)NC1CCCCC1 | > 80 µM (inactive) |
| Cc1ccc(C(C(=O)NCc2ccco2)N(C(=O)CNC(=O)c2cccs2)c2c(C)cc(C)cc2C)cc1 (stereo not drawn) | inactive |
| CSc1ccccc1NC(=O)c1cc(-c2cccnc2)nc2ccc(Br)cc12 | > 80 µM (inactive) |
| CC1=CC(C)[C@H](/C=N/n2c(=O)[nH]c3c([nH]c4ccc(C)cc43)c2=O)C(C)C1 (stereo partly drawn) | inactive |
| Cc1ccc(N=Cc2c(O)n(-c3ccc4c(c3)OCO4)c(=O)c3ccccc23)cc1 | > 80 µM (inactive) |
| Nc1nc(-c2cc(O)ccc2[N+](=O)[O-])cc(-c2ccccc2)c1[N+](=O)[O-] | 7.88 µM |
| COc1cccc(-c2sc3ccccc3c2-c2ccc(OCCN(C)C)cc2)c1 | 12.6 µM |
| Clc1ccc(C2=Nn3c(nnc3-c3cc(-c4ccccc4)n[nH]3)SC2)cc1 | 12.1 µM |

| Compound | EC50 |
| --- | --- |
| COc1cccc(-n2c(SCC(=O)N3CCc4ccccc43)nnc2-c2c[nH]c3ccccc23)c1 | > 80 µM (inactive) |
| CCOc1ccc(NC(=O)C(Cc2ccccc2)N2C(=O)c3cccc4cccc(c34)C2=O)cc1 (stereo not drawn) | > 80 µM (inactive) |
| CC(C)Cn1c2c(c(=O)[nH]c1=O)C(C(F)(F)F)(C(F)(F)F)N=C(CCC1CCCCC1)N2 | inactive |
| CCc1ccc(N2C(=O)NC(=O)/C(=C\c3cccn3CCOc3ccc(C(C)C)cc3)C2=O)cc1 | 6.38 µM |
| Clc1ccc(-c2ccc(/C=N/Nc3nncc(-c4ccccc4)n3)o2)cc1 | 13.6 µM |
| Oc1ccc(CN2CCC(Cc3ccccc3)CC2)c2cccnc12 | 5.55 µM |
| CCc1ccc(NC(=O)C(CC)Sc2nc3cc4c(cc3c(=O)n2Cc2ccco2)OCO4)cc1 (stereo not drawn) | > 80 µM (inactive) |
| O=C(Nc1nc(-c2ccc3ccccc3c2)cs1)c1ccc(N2C(=O)CCC2=O)cc1 | > 80 µM (inactive) |
| FC(F)(F)c1nc2ccccc2n2c(-c3ccc(Cl)cc3)nnc12 | 13.6 µM |
| COc1ccc(S(=O)(=O)N2c3cc(Cl)ccc3Oc3nc4ccccc4nc32)cc1 | > 80 µM (inactive) |
| COc1ccccc1NC(=O)c1cc2c(CO)cnc(C)c2oc1=Nc1ccccc1 | 13.3 µM |
| Cc1nc(NC(=O)c2cc3c(C)nn(-c4ccccc4)c3s2)sc1C(=O)Nc1ccccc1 | inactive |
| COc1cc2c(cc1NC(=S)NC(=O)/C=C/c1ccco1)oc1ccccc12 | inactive |
| O=C(N/N=C/c1ccccc1Cl)c1[nH]c2ccc(Br)cc2c1-c1ccccc1 | inactive |
| O=C(CSCc1ccc(Cl)cc1)Nc1ccc(-c2nnc(-c3ccccc3)o2)cc1 | > 80 µM (inactive) |
| CCOC(=O)c1c(NC(C)=O)sc2c(OCC(O)CNC(C)(C)C)c(Br)ccc12 (stereo not drawn) | > 80 µM (inactive) |
| O=C(Nc1nc2ccccc2s1)c1cc2c(s1)-c1ccccc1OC2 | inactive |
| CCOC(=O)c1sc(-c2ccccc2)cc1NC(=O)Nc1ccc([N+](=O)[O-])cc1 | 16.2 µM |
| NCCOc1ccc(C23CC4CC(CC(C4)C2)C3)cc1 | 8.74 µM |
| COc1ccc(C2NCCc3c2[nH]c2ccccc32)cc1COc1ccc(F)cc1 (stereo not drawn) | 18.3 µM |
| Cc1cc(N2CCN(c3ccc([N+](=O)[O-])c4cccnc34)CC2)c2ccccc2n1 | inactive |
| N#C/C(=C\Nc1ccc2cn[nH]c2c1)c1nc(-c2ccc(Cl)cc2)cs1 | inactive |
| CN(C)CCCn1cnc2c(c1=N)C(c1ccccc1)c1ccc3ccccc3c1O2 (stereo not drawn) | 7.75 µM |
| Cc1ccc(NC(=O)c2c(C)nc3sc(C(=O)NC4CCCC4)c(N)c3c2-c2ccco2)c(C)c1 | inactive |

| Compound | EC50 |
| --- | --- |
| Cc1cc(N2CCN(c3nc(-c4ccc([N+](=O)[O-])cc4)cs3)CC2)c2ccccc2n1 | 15.2 µM |
| Cn1nnnc1Sc1ncnc2scc(-c3ccc(Br)cc3)c12 | 17.1 µM |
| Cc1ccc(Cn2c(C(C)Nc3nc(-c4ccc(F)cc4)cs3)nc3cc(Cl)c(Cl)cc32)cc1 (stereo not drawn) | inactive |
| Cc1ccc(S(=O)(=O)N(CC(=O)N/N=C/c2ccc(F)cc2)c2cccc3cccnc23)cc1 | 1.92 µM |
| NC(=O)CC(NC(=O)Cc1cccc2ccccc12)c1ccc(NCCOc2ccccc2)c([N+](=O)[O-])c1 (stereo not drawn) | > 80 µM (inactive) |
| CCC(=O)Nc1nnc(SCC(=O)c2ccc3c(c2)Cc2ccccc2-3)s1 | inactive |
| CCN(CC)c1ccc(N=Cc2c(O)n(Cc3ccccc3)c(=O)[nH]c2=O)cc1 | inactive |
| CCOc1ccc(Cn2c3ccc(OC)cc3c3nc4ccccc4nc32)cc1OC | inactive |
| CCc1sc2nc(SCC(=O)Nc3cc(C)on3)n(-c3cccc(OC)c3)c(=O)c2c1C | 15.6 µM |
| CCc1cccc(CC)c1NC(=O)/C(C#N)=C/c1ccccc1C(F)(F)F | > 80 µM (inactive) |
| COc1ccc2oc(-c3ccc(C)c(NC(=O)c4ccc(N5CCOCC5)c([N+](=O)[O-])c4)c3)nc2c1 | > 80 µM (inactive) |
| CCOc1ccc(/C=C/C(O)=C2/C(=O)NC3(C)CC2c2ccccc2O3)cc1OC (stereo not drawn) | inactive |
| COc1ccc2cc1Oc1ccc(cc1)CC1c3c(cc(OC)c4c3Oc3cc5c(cc3O4)CCNC5C2)CCN1C (stereo not drawn) | > 80 µM (inactive) |
| CCCn1c(SCc2nc3sc(C)c(C)c3c(=O)[nH]2)nc2ccccc2c1=O | > 80 µM (inactive) |
| Nc1c(C(=O)Nc2ccc(S(=O)(=O)N3CCCC3)cc2)sc2nc3ccc(OC(F)(F)F)cc3cc12 | 4.39 µM |
| Brc1ccc(C2=Nn3c(nnc3-c3n[nH]c4c3CCC4)SC2)cc1 | inactive |
| CC(C)N(C(=O)[C@H]1C[C@H](CC(=O)NCc2cccc(C(F)(F)F)c2)C(=O)N2CCc3c([nH]c4ccc(Cl)cc34)[C@]12C)C(C)C | inactive |
| Cn1ncc(N=Cc2c(O)ccc3ccccc23)c1C(=O)Nc1cccc(Cl)c1 | > 80 µM (inactive) |
| CCCNC(=O)c1c(N)n(-c2ccc3c(c2)OCO3)c2nc3ccccc3nc12 | > 80 µM (inactive) |
| CC1=Nc2ccccc2/C1=C\c1sc(Nc2ccc(C)cc2)nc1O | 17.3 µM |
| COc1ccc2nc(C)cc(SCC(=O)N/N=C/c3cccc4ccccc34)c2c1 | inactive |
